# Assay results from patent US20050288347A1, “Certain triazole-based compounds, compositions, and uses thereof” (priority 2004, published 2005).
# “Also recorded” adds a separate entry of the source.
# Tested on: protein kinase
# Test: HTS ATP-utilizing enzyme assay, off-chip mobility-shift format (Caliper HTS 250)
# Type: biochemical, human
# Details: test compound 10 μM; for protein kinase against which the compound exhibits inhibitory activity (Table 3): active = activity greater than three-sigma from the mean of the predominately inactive population for that enzyme; for Kinase: kinase(s) for which the compound exhibits protein kinase inhibitory activity, active = greater than three-sigma from the mean activity of inactive compounds
# How it was run: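 Kinase reactions ran 2.5 h at 20 to 22 °C with test compound at 10 μM, in a HEPES pH 7.5 master buffer containing Triton X-100 and BSA. Peptide substrate and phosphorylated product separated by mobility shift; inhibition normalized to DMSO (0%) and EDTA (100%) controls, with three-sigma thresholds for hits.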
SMILES,protein kinase against which the compound exhibits inhibitory activity (Table 3),Kinase
"O=[N+]([O-])c1ccc(-c2nnc(SCc3ccncc3)[nH]2)cc1 [4-((5-(4-nitrophenyl)-4H-1,2,4-triazol-3-ylthio)methyl)pyridine]",FLT-3; also recorded: GSK3-β; also recorded: GSK3-α,–
"Cc1cccc(-c2nnc(SCC3CCCCC3)[nH]2)c1 [3-(cyclohexylmethylthio)-5-m-tolyl-4H-1,2,4-triazole]",AURORA-A; also recorded: c-TAK1,–
"O=S(=O)(CCSc1nnc(Cc2ccccc2)n1-c1ccccc1)Nc1ccccc1 [2-(5-benzyl-4-phenyl-4H-1,2,4-triazol-3-ylthio)-N-phenylethanesulfonamide]",AKT2,–
CCCn1c(SCC(=O)c2ccc3c(c2)OCCO3)nnc1-c1ccco1,–,DYRK2
Cc1cc(C)nc(SCc2nnc(SCC(=O)Nc3cccc(C(F)(F)F)c3)n2C)n1,–,CDK1
"Cc1ccc(CCn2c(Cc3ccccc3)nnc2SCc2ccccc2)cc1 [3-benzyl-5-(benzylthio)-4-(4-methylphenethyl)-4H-1,2,4-triazole]",FLT-3 and PRAK and AURORA-A,–
"CCOc1ccc(NCc2nnc(S)n2-c2ccc(C)cc2)cc1 [5-((4-ethoxyphenylamino)methyl)-4-p-tolyl-4H-1,2,4-triazole-3-thiol]",–,AURORA-A
"Cc1ccc(-n2c(S)nnc2CNc2cccc(Cl)c2)cc1 [5-((3-chlorophenylamino)methyl)-4-p-tolyl-4H-1,2,4-triazole-3-thiol]",–,GSK3-β; also recorded: GSK3-α
COCCCn1c(SCC(=O)NN(O)C(=O)c2ccccc2)nnc1-c1ccncc1,AURORA-A,–
CCCCSc1nnc(-c2cccnc2)[nH]1,AURORA-A; also recorded: FLT-3; also recorded: c-TAK1,–
"COc1ccc(OCc2nnc(S)n2-c2ccc(C)cc2)cc1 [5-((4-methoxyphenoxy)methyl)-4-p-tolyl-4H-1,2,4-triazole-3-thiol]",–,AURORA-A; also recorded: GSK3-α
CCOc1ccc2nc(-c3ccc(OC)cc3)cc(-c3nnc(SCc4ccc(F)cc4C(F)(F)F)n3C)c2c1,AURORA-A,–
CCOC(=O)CN(C(=O)CSc1nnc(-c2ccccc2O)n1CCc1ccccc1)c1cccc([N+](=O)[O-])c1,–,AURORA-A
CCOC(=O)CSc1nnc(CNc2ccc(C)c(Cl)c2)n1CC1CCCO1 (centres unmarked),–,CHEK2
COc1ccc(-n2c(SCCC(=O)O)nnc2-c2ccc(NC(=O)c3ccccc3)cc2)cc1,CHEK2; also recorded: AURORA-A,–
"C=C(C)Cn1c(S)nnc1-c1ccccc1OC [5-(2-methoxyphenyl)-4-(2-methylallyl)-4H-1,2,4-triazole-3-thiol]",–,CDK2-cyclinE
"Cc1cccc(-c2nnc(S)n2Cc2ccccc2)c1 [4-benzyl-5-m-tolyl-4H-1,2,4-triazole-3-thiol]",–,GSK3-α
COc1ccc(-n2c(CNc3ccc(C)cc3)nnc2SCc2ccccc2)cc1,FLT-3; also recorded: PDGFRR-α,–
"Cn1c(SCC(N)=O)nnc1-c1ccncc1 [2-(4-methyl-5-(pyridin-4-yl)-4H-1,2,4-triazol-3-ylthio)acetamide]",–,AKT1
CCn1c(CNc2ccc(OC)cc2)nnc1SCc1ccc(Cl)cc1,PDGFRR-α and FYN(,–
Cc1cc(NC(=O)CSc2nnc(-c3cc4ccccc4cc3O)n2C)no1,–,AURORA-A and FYN
"Oc1cc2ccccc2cc1-c1nnc(S)n1Cc1ccco1 [3-(4-(furan-2-ylmethyl)-5-mercapto-4H-1,2,4-triazol-3-yl)naphthalen-2-ol]",–,AURORA-A

SMILES,protein kinase against which the compound exhibits inhibitory activity (Table 3),Kinase
COc1cccc(OCc2nnc(SCC(=O)O)n2Cc2ccccc2)c1,–,MSK1
"O=C(NCCSc1nnc(-c2cccs2)[nH]1)c1ccccc1 [N-(2-(5-(thiophen-2-yl)-4H-1,2,4-triazol-3-ylthio)ethyl)benzamide]",DYRK2; also recorded: GSK3-α; also recorded: GSK3-β,–
CCC(O)CSc1nnc(-c2cccc(Cl)c2)n1-c1ccccc1OC (centres unmarked),ROCK2,–
Cn1c(SCC(=O)c2ccc3c(c2)OCCO3)nnc1-c1ccc(O)cc1,–,GSK3-β and GSK3-α and MSK1
CCOc1ccc(NCc2nnc(SCC(N)=O)n2-c2ccccc2)cc1,–,FYN and PDGFRR-α and FLT-3
"CCn1c(S)nnc1COc1ccccc1OC [4-ethyl-5-((2-methoxyphenoxy)methyl)-4H-1,2,4-triazole-3-thiol]",–,GSK3-α; also recorded: GSK3-β; also recorded: AURORA-A
COc1cc(CSc2nnc[nH]2)c(OC)cc1CSc1nnc[nH]1,CSK and LCK,–
CCOC(=O)c1c(NC(=O)CSc2nnc(-c3ccccc3O)n2CCc2ccccc2)sc(C)c1C,–,CDK2-cyclinA
O=C(NCCSc1nnc(-c2cccc(C(F)(F)F)c2)[nH]1)c1ccccc1,GSK3-β; also recorded: GSK3-α; also recorded: CHEK2,–
COc1ccc(OCc2nnc(SCC(=O)N3CCCc4ccccc43)n2-c2ccc(C)cc2)cc1,–,LCK
"Clc1ccc(-c2nnc(SCc3ccncc3)[nH]2)cc1Cl [4-((5-(3,4-dichlorophenyl)-4H-1,2,4-triazol-3-ylthio)methyl)pyridine]",FLT-3; also recorded: GSK3-β,–
"O=C(O)c1ccc(CSc2nnc(-c3cccs3)[nH]2)cc1 [4-((5-(thiophen-2-yl)-4H-1,2,4-triazol-3-ylthio)methyl)benzoic acid]",DYRK2; also recorded: AURORA-A; also recorded: FLT-3,–
CCOc1ccc2nc(NC(=O)CSc3nnc(-c4ccncc4)n3CCCOC)sc2c1,–,GSK3-β; also recorded: PDGFRR-α; also recorded: GSK3-α
NC(=O)c1c(NC(=O)CSc2nnc(-c3ccncc3)n2CC2CCCO2)sc2c1CCCC2 (centres unmarked),–,GSK3-β; also recorded: GSK3-α; also recorded: AURORA-A
O=C(CSc1nnc(-c2ccc(O)cc2)n1Cc1ccco1)N1CCc2ccccc2C1,–,GSK3-β and GSK3-α and SRC
"Cn1c(SCC(=O)N2CCOCC2)nnc1-c1ccco1 [2-(5-(furan-2-yl)-4-methyl-4H-1,2,4-triazol-3-ylthio)-1-morpholinoethanone]",–,FYN
COc1ccc(NCc2nnc(SC(C)C(=O)O)n2-c2ccccc2)cc1 (centres unmarked),–,FYN( and PDGFRR-α
COc1ccccc1-n1c(SCC(=O)Nc2ccccc2)nnc1-c1cccc(Cl)c1,ROCK2,–
COc1ccc(-n2c(S)nnc2CNc2ccc(Cl)cc2)cc1,–,AURORA-A; also recorded: GSK3-α
"CC(C)(C)c1nnc(SCc2ccncc2)[nH]1 [4-((5-tert-butyl-4H-1,2,4-triazol-3-ylthio)methyl)pyridine]",GSK3-α,–
"c1ccc(-c2nnc(SCCN3CCCC3)[nH]2)cc1 [3-phenyl-5-(2-(pyrrolidin-1-yl)ethylthio)-4H-1,2,4-triazole]",GSK3-α; also recorded: GSK3-β; also recorded: CHEK2,–
COc1ccc(-n2c(SCc3nnc(-c4ccccc4)o3)nnc2-c2ccncc2)cc1,GSK3-α,–

SMILES,protein kinase against which the compound exhibits inhibitory activity (Table 3),Kinase
COc1ccc(-n2c(SCC(=O)NNC(C)=O)nnc2-c2ccncc2)cc1,FYN,–
CC(=O)c1ccc(NC(=O)CSc2nnc(-c3ccc(O)cc3)n2C)cc1,–,AKT1
"Cn1c(SCc2ccc(Cl)c(Cl)c2)nnc1-c1ccc(Cl)cc1 [3-(4-chlorophenyl)-5-(3,4-dichlorobenzylthio)-4-methyl-4H-1,2,4-triazole]",PRAK and FYN,–
COc1ccc(NCc2nnc(SCC(=O)O)n2-c2ccc(OC)cc2)cc1,–,PDGFRR-α and FYN
Cn1c(CNc2nc(-c3ccccc3)cs2)nnc1SCC(N)=O,–,FYN
CCn1c(COc2ccc(Cl)c(C)c2)nnc1SCC(=O)O,–,MSK1
O=C(CSc1nnc(-c2ccc(O)cc2)n1-c1cccc(Cl)c1)NCc1ccccc1,–,GSK3-α
Cc1cc(NC(=O)CSc2nnc(-c3cccnc3)n2-c2ccc(F)cc2)no1,–,FYN
"Cc1ccc(-n2c(SCC#N)nnc2-c2ccncc2)cc1 [2-(5-(pyridin-4-yl)-4-p-tolyl-4H-1,2,4-triazol-3-ylthio)acetonitrile]",–,AURORA-A; also recorded: GSK3-β; also recorded: GSK3-α
O=C(CSc1nnc(Cc2ccccc2)n1C1CCCCC1)Nc1cccc(O)c1,–,AURORA-A
"COc1ccc(-c2nnc(SCc3ccc(Cl)cc3)n2-c2ccccc2)cc1OC [3-(4-chlorobenzylthio)-5-(3,4-dimethoxyphenyl)-4-phenyl-4H-1,2,4-triazole]",CDK1,–
COCCn1c(SCC(=O)N2c3ccccc3Sc3ccccc32)nnc1-c1cc2ccccc2cc1O,–,DAPK1
COc1ccc(C(=O)NNC(=O)CSc2nnc(C)n2CCc2ccccc2)cc1,DGFRR-α,–
"C=CCn1c(S)nnc1-c1cc2ccccc2cc1O [3-(4-allyl-5-mercapto-4H-1,2,4-triazol-3-yl)naphthalen-2-ol]",–,MSK1
CCn1c(CNc2ccccc2Cl)nnc1SCCN1CCCCC1,MAPKAPK-2,–
Clc1ccc(CSc2nnc(-c3ccncc3)n2Cc2ccco2)c(Cl)c1,MSK2 and MSK1 and AKT3,–
CC1CCN(C(=O)CSc2nnc(Cc3ccccc3)n2-c2cccc(Cl)c2)CC1,–,LCK
CCOc1ccc(NCc2nnc(SCC#N)n2-c2ccc(C)cc2)cc1,–,FYN
CCOC(=O)CSc1nnc(CNc2cc(Cl)ccc2Cl)n1CC,–,DYRK2
NC(=O)CSc1nnc(CNc2ccc(F)cc2)n1-c1ccccc1,–,FLT-3
Cc1ccc(-n2c(SCc3ccc(C(=O)O)cc3)nnc2-c2ccc(Cl)cc2)cc1,SYK,–
